Experimental data: publication PMC6345859, “Copper amine oxidases catalyze the oxidative deamination and hydrolysis of cyclic imines” (Nature Communications, 2019)
Changes are numbered by the printed parent chain.

How the values were obtained:
[1] = target: T1, ECAO (copper amine oxidase from E. coli) (Escherichia coli, UniProt P46883); experiment: LC/MS or HPLC product detection; assay type: biochemical; settings: 0.5 mg/mL enzyme
T1 construct: gene tynA; recombinant, pET24a(+)-tynA in E. coli BL21-CodonPlus(DE3)-RIL, purified; TPQ cofactor
T1 sequence (P46883 31-757): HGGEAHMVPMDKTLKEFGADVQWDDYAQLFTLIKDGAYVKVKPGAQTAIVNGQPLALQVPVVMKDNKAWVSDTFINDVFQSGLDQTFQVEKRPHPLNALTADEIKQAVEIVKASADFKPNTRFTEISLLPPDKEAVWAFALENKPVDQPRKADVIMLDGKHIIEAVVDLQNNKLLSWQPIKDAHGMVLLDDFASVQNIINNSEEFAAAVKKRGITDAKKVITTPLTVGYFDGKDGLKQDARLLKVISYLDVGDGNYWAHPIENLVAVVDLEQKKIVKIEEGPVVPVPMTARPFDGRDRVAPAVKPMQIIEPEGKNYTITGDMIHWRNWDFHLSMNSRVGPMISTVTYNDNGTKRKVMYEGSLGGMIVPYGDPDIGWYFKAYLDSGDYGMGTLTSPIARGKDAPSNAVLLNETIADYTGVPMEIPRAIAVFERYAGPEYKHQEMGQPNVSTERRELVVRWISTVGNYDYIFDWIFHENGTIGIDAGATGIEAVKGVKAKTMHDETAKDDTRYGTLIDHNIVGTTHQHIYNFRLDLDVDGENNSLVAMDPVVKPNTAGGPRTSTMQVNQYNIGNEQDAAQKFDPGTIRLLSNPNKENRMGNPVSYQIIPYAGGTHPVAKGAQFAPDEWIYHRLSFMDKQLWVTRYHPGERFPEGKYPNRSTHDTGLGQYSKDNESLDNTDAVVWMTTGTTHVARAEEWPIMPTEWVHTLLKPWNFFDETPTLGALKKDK

[2] = target: T2, HarA (harmaline-metabolizing enzyme, copper amine oxidase) (Arthrobacter sp., UniProt A0A5A4PV14, D295E); experiment: LC/MS product detection; assay type: biochemical; settings: […] Hepes-NaOH pH […] °C
T2 construct: purified from strain C-4A, or recombinant from E. coli BL21-CodonPlus(DE3)-RIL (pETDuet-harA); 71 kDa subunit, 130 kDa native, homodimer; TPQ cofactor from Y379, Cu2+
T2 sequence (A0A5A4PV14 1-649 D295E): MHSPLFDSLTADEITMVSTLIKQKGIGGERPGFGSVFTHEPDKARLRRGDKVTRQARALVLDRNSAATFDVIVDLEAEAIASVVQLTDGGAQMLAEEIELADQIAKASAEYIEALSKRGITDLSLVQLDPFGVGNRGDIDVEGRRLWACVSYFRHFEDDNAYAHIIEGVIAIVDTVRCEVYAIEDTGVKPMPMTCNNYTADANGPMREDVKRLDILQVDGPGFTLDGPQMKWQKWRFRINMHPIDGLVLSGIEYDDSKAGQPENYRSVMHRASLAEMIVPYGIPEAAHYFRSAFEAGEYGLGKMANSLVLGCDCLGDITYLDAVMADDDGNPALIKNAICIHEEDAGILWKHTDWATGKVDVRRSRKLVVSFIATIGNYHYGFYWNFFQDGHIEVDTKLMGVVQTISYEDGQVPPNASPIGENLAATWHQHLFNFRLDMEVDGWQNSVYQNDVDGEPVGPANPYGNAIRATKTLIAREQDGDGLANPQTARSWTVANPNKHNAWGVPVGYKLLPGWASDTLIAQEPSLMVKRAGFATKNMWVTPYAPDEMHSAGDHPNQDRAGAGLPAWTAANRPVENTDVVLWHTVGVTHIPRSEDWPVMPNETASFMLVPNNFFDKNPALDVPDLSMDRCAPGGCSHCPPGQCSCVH

[3] = target: T3, HarA (harmaline-metabolizing enzyme, copper amine oxidase) (Arthrobacter sp., UniProt A0A5A4PV14); experiment: LC/MS/MS of chymotryptic nonapeptide; phenylhydrazine titration; assay type: binding; settings: covalent; adduct with TPQ cofactor (Y379); […] Tris-HCl pH […] digest
T3 construct: purified from strain C-4A, or recombinant from E. coli BL21-CodonPlus(DE3)-RIL (pETDuet-harA); 71 kDa subunit, 130 kDa native, homodimer; TPQ cofactor from Y379, Cu2+
T3 sequence (A0A5A4PV14 1-649): T2 sequence (A0A5A4PV14 1-649 D295E) with E295D

[4] = system: C=C1CCCCN1; experiment: purified protein; settings: 20 mM Hepes-NaOH pH 7.0, 28 °C, O2 co-substrate, named as the enamine tautomer, treated in the paper as a cyclic imine
[5] = system: COc1ccc2c3c([nH]c2c1)C(C)=NCC3; experiment: purified protein; settings: 20 mM Hepes-NaOH pH 7.0, 28 °C, O2 co-substrate
[6] = target: T3, HarA (harmaline-metabolizing enzyme, copper amine oxidase); experiment: resonance Raman and anaerobic UV-vis spectroscopy; assay type: binding; settings: covalent imine adduct with TPQ, difference against Y379F

COc1ccc2c3c([nH]c2c1)C(C)=NCC3 [harmaline]
LC/MS or HPLC product detection [1]: The purified ECAO was able to convert harmaline into 2-AIMA

NCCc1c[nH]c2ccccc12 [tryptamine]
LC/MS product detection [2]: D295E mutant catalyzed deamination of tryptamine, although the activity was less than that of wild-type

NNc1ccccc1 [phenylhydrazine]
LC/MS/MS of chymotryptic nonapeptide; phenylhydrazine titration [3]: TPQ was also detected as a phenylhydrazine adduct in the nonapeptide

HarA (harmaline-metabolizing enzyme, copper amine oxidase) (Arthrobacter sp.)
Km [4]: 1700 µM | Km [5]: 439 µM

NCc1ccccc1 [BA, benzylamine]
resonance Raman and anaerobic UV-vis spectroscopy [6]: we observed a benzylamine adduct, which would be the inactive deprotonated imine intermediate, in HarA
